# Data: patent US20110269763A1, “CRTH2 receptor ligands for medicinal uses” (7TM Pharma A/S, priority 2004, published 2011)
# Key:
# [1] = target: T1, human CRTH2 (Homo sapiens, UniProt Q9Y5Y4, V204A); assay: Functional antagonist BRET assay on HEK293 cells stably expressing human CRTH2-Rluc and GFP2-β-arr2; type: cell-based; set-up: expressed in transfected cells; settings: BRET, antagonist incubated 15 minutes prior to agonist; read-out: Antag. IC50
# T1 sequence (Q9Y5Y4 1-395 V204A): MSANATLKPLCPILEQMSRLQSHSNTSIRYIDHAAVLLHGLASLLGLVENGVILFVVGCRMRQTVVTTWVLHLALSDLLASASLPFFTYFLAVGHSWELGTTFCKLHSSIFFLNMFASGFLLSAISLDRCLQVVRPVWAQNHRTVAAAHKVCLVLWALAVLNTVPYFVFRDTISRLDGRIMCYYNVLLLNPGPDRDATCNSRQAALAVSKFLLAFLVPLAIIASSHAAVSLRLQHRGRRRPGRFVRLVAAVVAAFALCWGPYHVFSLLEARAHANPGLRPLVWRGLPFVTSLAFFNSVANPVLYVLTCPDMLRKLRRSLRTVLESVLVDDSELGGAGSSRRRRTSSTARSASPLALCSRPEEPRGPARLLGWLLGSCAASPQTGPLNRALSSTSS
# From the text: (§1) Generation/origin of the cDNA Constructs. The coding sequence of the human CRTH2 receptor (genbank accession no NM_004778) was amplified by PCR from a human hippocampus cDNA library and inserted into the pcDNA3.1(+) expression vector (invitrogen) via 5′ HindIII and 3′ EcoRI. To generate a CRTH2-Renilla luciferase (CRTH2-Rluc) fusion protein, the CRTH2 coding sequence without a STOP codon and Rluc were amplified, fused in frame by PCR and subcloned into the pcDNA3.1(+)Zeo expression vector (invitrogen). Human β-arrestin2 (β-arr2) N-terminally tagged with GFP^2 (βarr2-GFP^2) and Renilla luciferase were purchased from BioSignal Packard Inc, (Montreal, Canada). The sequence identity of the construct was verified by restriction endonuclease digests and sequencing in both directions on an ABI Prism (Applied Biosystems, Foster City, Calif.).
# (§2) Cell Culture and Transfection. COS-7 cells were grown in Dulbecco's modified Eagle's medium (DMEM) 1885 supplemented with 10% fetal bovine serum, 100 units/ml penicillin, […] streptomycin, and kept at 37° C. in a 10% CO2 atmosphere. HEK293 cells were maintained in Minimum Essential medium (MEM) supplemented with 10% (v/v) heat inactivated fetal calf serum (HIFCS), 2 mM Glutamax™-I, 1% non essential amino acids (NEAA), 1% sodium pyruvate and 10 μg/ml gentamicin. For binding experiments, COS7 cells were transiently transfected with the CRTH2 receptor using a calcium phosphate-DNA coprecipitation method with the addition of chloroquine (as described by Holst et al., 2001↓). To perform the functional Bioluminescence Resonance Energy Transfer (BRET) assays, a HEK293 cell clone stably expressing βarr2-GFP^2 and CRTH2-Rluc was generated (CRTH2-HEK293 cells).
# BRET assay. Functional BRET assays were performed on HEK293 cells stably expressing human CRTH2-Rluc and GFP^2-β-arr2. Prior to their use in the BRET assay cells were detached and re-suspended in D-PBS with 1000 mg/L L-Glucose at a density of 2×10^6 cells/mL. DeepBlueC™ was diluted to 50 μM in D-PBS with 1000 mg/L L-Glucose (light sensitive). 100 μL of cell suspension was transferred to wells in a 96-well microplate (white OptiPlate) and placed in the Mithras LB 940 instrument (BERTHOLD TECHNOLOGIES, Bad Wildbad, Germany). 12 μL/well agonist was then injected by injector 1 and 10 μL/well DeepBlueC™ was injected simultaneously by injector 2. Five seconds after the injections the light output from the well was measured sequentially at 400 nm and 515 nm, and the BRET signal (mBRET ratio) was calculated by the ratio of the fluorescence emitted by GFP^2-β-arr2 (515 nm) over the light emitted by the receptor-Rluc (400 nm). Antagonists were added before placing the microplates into the Mithras LB 940 and allowed to incubate for 15 minutes prior to the addition of agonist and DeepBlueC™. Compounds were dissolved in DMSO and the final DMSO concentration was kept constant at 1% in the assay.
# (§3) Curve analysis was performed with the GraphPadPrism software 3.0 (Graphpad Prism Inc., San Diego, USA) and IC50 values were calculated as a measure of the antagonistic potencies.
# [2] = target: T1, human CRTH2; assay: Receptor binding assay: [3H]PGD2 competition binding on whole COS-7 cells transiently transfected with CRTH2 (also stable HEK293 cells); set-up: expressed in transfected cells; host or cells: COS-7 (transient, calcium phosphate); settings: competition with 0.1 nM [3H]PGD2, whole cells, 3 h at 4° C.
# From the text: as §1, §2
# Binding assay. 24 h after transfection COS-7 cells were seeded into 96 well plates at a density of 30.000 cells/well. Competition binding experiments on whole cells were then performed about 18-24 h later using 0.1 nM [^3H]PGD2 (NEN, 172 Ci/mmol) in a binding buffer consisting of HBSS (GIBCO) and 10 mM HEPES. Competing ligands were diluted in DMSO which was kept constant at 1% (v/v) of the final incubation volume. Total and nonspecific binding were determined in the absence and presence of 10 μM PGD2. Binding reactions were routinely conducted for 3 h at 4° C. and terminated by 2 washes (100 μl each) with ice cold binding buffer. Radioactivity was determined by liquid scintillation counting in a TOPCOUNTER (Packard) following over night incubation in Microscint 20. Stable HEK293 cells were seeded at a density of 30.000 cells/well 18-24 h prior to the binding assay which was performed essentially as described for COS7 cells above. Determinations were made in duplicates.
# as §3
SMILES,IC50 [1] [nM],IC50 [2] [nM]
"CC(Oc1ccc(Br)cc1C(=O)c1cnn(-c2ccccc2)c1)C(=O)O (racemic) [D37, 2-[4-Bromo-2-(1-phenyl-1H-pyrazole-4-carbonyl)phenoxy]propionic acid]",< 500,< 500
"C[C@H](Oc1ccc(Br)cc1C(=O)c1cnn(-c2ccccc2)c1)C(=O)O [(S)-D37, 2(S)-[4-Bromo-2-(1-phenyl-1H-pyrazole-4-carbonyl)-phenoxy]-propionic acid]",< 500,< 500
"O=C(O)COc1ccc(Br)cc1C(=O)c1cnn(-c2ccccc2)c1 [D1, 4-Bromo-2-(1-phenyl-1H-pyrazole-4-carbonyl)phenoxyacetic acid]",< 500,< 500
"O=C(O)COc1ccccc1C(=O)c1cnn(-c2ccccc2)c1 [D2, 2-(1-Phenyl-1H-pyrazole-4-carbonyl)phenoxyacetic acid]",500 to 5000,< 500
"O=C(O)COc1ccc(F)cc1C(=O)c1cnn(-c2ccccc2)c1 [D3, 4-Fluoro-2-(1-phenyl-1H-pyrazole-4-carbonyl)phenoxyacetic acid]",500 to 5000,< 500
"O=C(c1cnn(-c2ccccc2)c1)c1cc(Br)ccc1OCc1nn[nH]n1 [D4, [5-Bromo-2-(2H-tetrazol-5-ylmethoxy)phenyl](1-phenyl-1H-pyrazol-4-yl)ketone]",> 5000,< 500
"O=C(O)COc1ccc(-c2ccccc2)cc1C(=O)c1cnn(-c2ccccc2)c1 [D5, 3-(1-Phenyl-1H-pyrazole-4-carbonyl)biphenyl-4-yloxyacetic acid]",< 500,< 500
"O=C(O)COc1ccc(Br)cc1C(=O)c1cnn(-c2ccccn2)c1 [D6, 4-Bromo-2-(1-pyridin-2-yl-1H-pyrazole-4-carbonyl)phenoxyacetic acid]",< 500,< 500
"COc1ccc(-n2cc(C(=O)c3cc(Br)ccc3OCC(=O)O)cn2)cc1 [D7, 4-Bromo-2-[1-(4-methoxyphenyl)-1H-pyrazole-4-carbonyl]phenoxyacetic acid]",< 500,< 500
"O=C(O)COc1ccc(-c2cc(F)cc(F)c2)cc1C(=O)c1cnn(-c2ccccc2)c1 [D8, [3′,5′-Difluoro-3-(1-phenyl-1H-pyrazole-4-carbonyl)biphenyl-4-yloxy]acetic acid]",500 to 5000,< 500
"O=C(O)COc1ccc(-c2ccc(Cl)cc2)cc1C(=O)c1cnn(-c2ccccc2)c1 [D9, [4′-Chloro-3-(1-phenyl-1H-pyrazole-4-carbonyl)biphenyl-4-yloxy]acetic acid]",< 500,< 500
"O=C(O)COc1ccc(Cl)cc1C(=O)c1cnn(-c2ccccc2)c1 [D10, [4-Chloro-2-(1-phenyl-1H-pyrazole-4-carbonyl)phenoxy]acetic acid]",500 to 5000,< 500
"Cc1ccc(OCC(=O)O)c(C(=O)c2cnn(-c3ccccc3)c2)c1 [D11, [4-Methyl-2-(1-phenyl-1H-pyrazole-4-carbonyl)phenoxy]acetic acid]",500 to 5000,< 500
"O=C(O)COc1c(Cl)cc(Cl)cc1C(=O)c1cnn(-c2ccccc2)c1 [D13, [2,4-Dichloro-6-(1-phenyl-1H-pyrazole-4-carbonyl)phenoxy]acetic acid]",> 5000,> 5000
"O=C(O)COc1ccc(Br)cc1C(=O)c1cnn(-c2ccccc2Cl)c1 [D14, 4-Bromo-2-[1-(2-chloro-phenyl)-1H-pyrazole-4-carbonyl]phenoxyacetic acid]",< 500,> 5000
"O=C(O)COc1ccc(Br)cc1C(=O)c1cnn(-c2cccc(Cl)c2)c1 [D15, 4-Bromo-2-[1-(3-chloro-phenyl)-1H-pyrazole-4-carbonyl]phenoxyacetic acid]",< 500,< 500
"O=C(O)COc1ccc(Br)cc1C(=O)c1cnn(-c2ccc(Br)cc2)c1 [D16, 4-Bromo-2-[1-(4-bromophenyl)-1H-pyrazole-4-carbonyl]phenoxyacetic acid]",< 500,< 500
"O=C(O)COc1ccc(Br)cc1C(=O)c1cnn(-c2ccc(Cl)cc2)c1 [D17, 4-Bromo-2-[1-(4-chlorophenyl)-1H-pyrazole-4-carbonyl]phenoxyacetic acid]",< 500,< 500
"CCc1ccccc1-n1cc(C(=O)c2cc(Br)ccc2OCC(=O)O)cn1 [D18, 4-Bromo-2-[1-(2-ethylphenyl)-1H-pyrazole-4-carbonyl]phenoxyacetic acid]",< 500,< 500
"O=C(O)COc1ccc([N+](=O)[O-])cc1C(=O)c1cnn(-c2ccc(Cl)cc2)c1 [D19, 4-Nitro-2-[1-(4-chlorophenyl)-1H-pyrazole-4-carbonyl]phenoxyacetic acid]",< 500,< 500
"O=C(O)COc1ccc([N+](=O)[O-])cc1C(=O)c1cnn(-c2ccccc2)c1 [D20, 4-Nitro-2-(1-phenyl-1H-pyrazole-4-carbonyl)phenoxyacetic acid]",< 500,< 500
"O=C(O)COc1ccc(Br)cc1C(=O)c1cnn(-c2ccccc2Br)c1 [D21, 4-Bromo-2-[1-(2-bromophenyl)-1H-pyrazole-4-carbonyl]phenoxyacetic acid]",< 500,< 500
"O=C(O)COc1ccc(Br)cc1C(=O)c1cnn(-c2ccccc2F)c1 [D22, 4-Bromo-2-[1-(2-fluorophenyl)-1H-pyrazole-4-carbonyl]phenoxyacetic acid]",< 500,< 500
"O=C(O)COc1ccc(Br)cc1C(=O)c1cnn(-c2ccccc2C(F)(F)F)c1 [D23, 4-Bromo-2-[1-(2-trifluoromethylphenyl)-1H-pyrazole-4-carbonyl]phenoxyacetic acid]",< 500,< 500
"O=C(O)COc1ccc(Br)cc1C(=O)c1cnn(-c2cccc(Br)c2)c1 [D24, 4-Bromo-2-[1-(3-bromophenyl)-1H-pyrazole-4-carbonyl]phenoxyacetic acid]",< 500,< 500
"O=C(O)COc1ccc(Br)cc1C(=O)c1cnn(-c2cccc(C(F)(F)F)c2)c1 [D25, 4-Bromo-2-[1-(3-trifluoromethylphenyl)-1H-pyrazole-4-carbonyl]phenoxyacetic acid]",< 500,< 500
"O=C(O)COc1ccc(Br)cc1C(=O)c1cc(-c2c(Cl)cccc2Cl)no1 [D98, {4-Bromo-2-[3-(2,6-dichloro-phenyl)isoxazole-5-carbonyl]phenoxy}acetic acid]",,< 500
